Measured values: US20240287138A1, “CYCLIC PEPTIDES FOR INHIBITING TNF RECEPTOR 1 ACTIVITY” (Merck Sharp & Dohme LLC, priority 2023, published 2024)
Numbered stars: 1 amine (or outer) side, 2 acyl side, 3 side chain; on linkers, the order of the positions; unused ones are H or OH. Square brackets hold non-standard residues; d marks the D form. Peptide text beside a SMILES is read from it. * marks the point of attachment. Trp(βS-Me,7-OMe) = COc1cccc2c([C@H](C)[C@H](N)C(=O)O)c[nH]c12; dPro(trans-4-NMe3+) = C[N+](C)(C)[C@@H]1CN[C@@H](C(=O)O)C1; Trp(1-CH2COOH) = N[C@@H](Cc1cn(CC(=O)O)c2ccccc12)C(=O)O; Phe(4-SO2NH2) = N[C@@H](Cc1ccc(S(N)(=O)=O)cc1)C(=O)O; Trp(7-CN) = N#Cc1cccc2c(C[C@H](N)C(=O)O)c[nH]c12; Trp(7-Cl) = N[C@@H](Cc1c[nH]c2c(Cl)cccc12)C(=O)O; X27 = O=C(O)c1ccc(C[C@H](N[*:1])C(=O)[*:2])cc1F; Phe(3-CONH2) = NC(=O)c1cccc(C[C@H](N)C(=O)O)c1; Phe(3-COOH) = N[C@@H](Cc1cccc(C(=O)O)c1)C(=O)O; Phe(4-CONH2) = NC(=O)c1ccc(C[C@H](N)C(=O)O)cc1; Phe(4-COOH) = N[C@@H](Cc1ccc(C(=O)O)cc1)C(=O)O; X30 = O=C([C@@H](N[*:1])[C@H](O)c1ccncc1)[*:2]; 4Pal(3S-Me) = C[C@@H](c1ccncc1)[C@H](N)C(=O)O; Trp(7-aza) = N[C@@H](Cc1c[nH]c2ncccc12)C(=O)O; dPro(trans-4-F) = O=C(O)[C@H]1C[C@H](F)CN1; Pip(5R-OH) = O=C(O)[C@@H]1CC[C@@H](O)CN1; X1 = O=C([C@@H]1CC[C@H](N[*:1])C1)[*:2]; Gly(Nα-CH2CH2CONH2) = NC(=O)CCNCC(=O)O; Pip(4-aza) = O=C(O)[C@@H]1CNCCN1; 4Pal = N[C@@H](Cc1ccncc1)C(=O)O; NMeE = CN[C@@H](CCC(=O)O)C(=O)O; dHyp = O=C(O)[C@H]1C[C@H](O)CN1; Cit = NC(=O)NCCC[C@H](N)C(=O)O; Ahp(2) = CCCCC[C@H](N)C(=O)O; αMeS = C[C@](N)(CO)C(=O)O; Carboxymethyl = O=C(O)C*; Nle = CCCC[C@H](N)C(=O)O; Sar = CNCC(=O)O

Legend:
[1] = target: T1, human soluble TNFR1 (sTNFR1) (Homo sapiens, UniProt P19438); test: Human sTNFR1-peptide displacement assay (LanthaScreen Eu TR-FRET binding assay)
T1 construct: made in house; host or cells: Sf21 (baculovirus)
T1 sequence (P19438 with tags, fused parts or gaps): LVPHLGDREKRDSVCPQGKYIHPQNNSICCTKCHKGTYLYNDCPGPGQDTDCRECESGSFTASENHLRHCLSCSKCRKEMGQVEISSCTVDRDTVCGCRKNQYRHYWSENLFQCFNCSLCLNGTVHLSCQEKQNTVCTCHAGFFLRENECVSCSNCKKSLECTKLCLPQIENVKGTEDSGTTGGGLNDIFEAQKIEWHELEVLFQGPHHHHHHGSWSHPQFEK
How it was run: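 Readout is the 665/615 nm TR-FRET ratio (Eu anti-His donor, streptavidin-Alexa647 acceptor), normalized to DMSO and saturating displacer, fit by Morrison-based five-parameter logistic for Kd^app. His-tagged sTNFR1 (1-211) prebound to 100 nM biotinylated peptide SEQ ID NO.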

human TNFR2 ECD protein = target: T2, human TNFR2 ECD protein (Homo sapiens, UniProt P20333); test: SPR off-target binding (selectivity) to human TNFR2 ECD
T2 construct: HRV 3C protease cleavage site (C); 6His (C, cleaved yes); made in house; host or cells: Sf21 insect cells (baculovirus), secreted
T2 sequence (P20333 23-257): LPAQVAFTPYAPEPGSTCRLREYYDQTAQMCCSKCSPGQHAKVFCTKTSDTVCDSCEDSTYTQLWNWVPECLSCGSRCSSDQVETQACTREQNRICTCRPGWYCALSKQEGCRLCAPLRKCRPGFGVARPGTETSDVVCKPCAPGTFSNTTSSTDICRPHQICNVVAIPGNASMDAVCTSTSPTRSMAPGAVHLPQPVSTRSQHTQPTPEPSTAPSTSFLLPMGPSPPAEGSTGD
How it was run: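 Biotinylated human TNFR1 or TNFR2 ECD (C-terminal Avi-tag, Sf21-expressed) captured on a regenerable streptavidin chip; peptide analytes flowed in 10 mM HEPES pH 7.4, 150 mM NaCl, 3 mM EDTA, 0.05% P20, 2% DMSO. kon and koff measured; affinity calculated from the rate constants.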

Compound | Kd [1] [nM] | Kd (human TNFR2 ECD protein) [nM]
CCCC[C@@H]1NC(=O)[C@@H]2CC[C@@H](C2)NC(=O)[C@H]([C@@H](C)c2c[nH]c3c(OC)cccc23)NC(=O)CN(C)C(=O)[C@H](Cc2ccc(C(=O)O)cc2)NC(=O)[C@H](Cc2ccc(S(N)(=O)=O)cc2)NC(=O)[C@](C)(CO)NC(=O)[C@H](Cc2c[nH]c3c(C#N)cccc23)NC(=O)[C@H](Cc2ccc(C(=O)O)cc2)NC(=O)[C@H](CC(N)=O)NC(=O)[C@H]2C[C@H](OCC(=O)O)CN2C(=O)[C@H](Cc2c[nH]c3ncccc23)NC(=O)[C@@H]2CC[C@@H](O)CN2C(=O)[C@H](Cc2ccncc2)NC1=O [SEQ ID NO. 4] (cyclo([4Pal][Pip(5R-OH)][Trp(7-aza)][dHyp](Carboxymethyl)N[Phe(4-COOH)][Trp(7-CN)][αMeS][Phe(4-SO2NH2)][Phe(4-COOH)][Sar][Trp(βS-Me,7-OMe)][X1][Nle])) | 0.09 | > 1000
CCCC[C@@H]1NC(=O)[C@@H]2CC[C@@H](C2)NC(=O)[C@H]([C@@H](C)c2c[nH]c3c(OC)cccc23)NC(=O)CN(C)C(=O)[C@H](Cc2ccc(C(=O)O)cc2)NC(=O)[C@H](Cc2ccc(C(N)=O)cc2)NC(=O)[C@](C)(CO)NC(=O)[C@H](Cc2c[nH]c3c(C#N)cccc23)NC(=O)[C@H](Cc2ccc(C(=O)O)c(F)c2)NC(=O)[C@H](CC(N)=O)NC(=O)[C@H]2C[C@H](O)CN2C(=O)[C@H](Cc2c[nH]c3ncccc23)NC(=O)[C@@H]2CC[C@@H](O)CN2C(=O)[C@H](Cc2ccncc2)NC1=O [SEQ ID NO. 8] (cyclo([4Pal][Pip(5R-OH)][Trp(7-aza)][dHyp]N[X27][Trp(7-CN)][αMeS][Phe(4-CONH2)][Phe(4-COOH)][Sar][Trp(βS-Me,7-OMe)][X1][Nle])) | 0.1 | > 1000
CCCC[C@@H]1NC(=O)[C@@H]2CC[C@@H](C2)NC(=O)[C@H]([C@@H](C)c2c[nH]c3c(OC)cccc23)NC(=O)CN(C)C(=O)[C@H](Cc2ccc(C(N)=O)cc2)NC(=O)[C@H](Cc2ccc(S(N)(=O)=O)cc2)NC(=O)[C@](C)(CO)NC(=O)[C@H](Cc2c[nH]c3c(C#N)cccc23)NC(=O)[C@H](Cc2ccc(C(=O)O)cc2)NC(=O)[C@H](CC(N)=O)NC(=O)[C@H]2C[C@H]([N+](C)(C)C)CN2C(=O)[C@H](Cc2cn(CC(=O)O)c3ccccc23)NC(=O)[C@@H]2CC[C@@H](O)CN2C(=O)[C@H](Cc2ccncc2)NC1=O [SEQ ID NO. 9] (cyclo([4Pal][Pip(5R-OH)][Trp(1-CH2COOH)][dPro(trans-4-NMe3+)]N[Phe(4-COOH)][Trp(7-CN)][αMeS][Phe(4-SO2NH2)][Phe(4-CONH2)][Sar][Trp(βS-Me,7-OMe)][X1][Nle])) | 0.05 | > 1000
CCCCC[C@@H]1NC(=O)[C@@H]2CC[C@@H](C2)NC(=O)[C@H]([C@@H](C)c2c[nH]c3c(OC)cccc23)NC(=O)CN(C)C(=O)[C@H](Cc2cccc(C(N)=O)c2)NC(=O)[C@H](Cc2ccc(C(N)=O)cc2)NC(=O)[C@](C)(CO)NC(=O)[C@H](Cc2c[nH]c3c(C#N)cccc23)NC(=O)[C@H](Cc2ccc(C(=O)O)cc2)NC(=O)[C@H](CC(N)=O)NC(=O)CN(CCC(N)=O)C(=O)[C@H](Cc2c[nH]c3ccccc23)NC(=O)[C@@H]2CNCCN2C(=O)[C@H](Cc2ccncc2)NC1=O [SEQ ID NO. 10] (cyclo([4Pal][Pip(4-aza)]W[Gly(Nα-CH2CH2CONH2)]N[Phe(4-COOH)][Trp(7-CN)][αMeS][Phe(4-CONH2)][Phe(3-CONH2)][Sar][Trp(βS-Me,7-OMe)][X1][Ahp(2)])) | 0.1 | > 1000
CCCC[C@@H]1NC(=O)[C@@H]2CC[C@@H](C2)NC(=O)[C@H]([C@@H](C)c2c[nH]c3c(OC)cccc23)NC(=O)CN(C)C(=O)[C@H](Cc2ccc(C(N)=O)cc2)NC(=O)[C@H](Cc2ccc(C(N)=O)cc2)NC(=O)[C@](C)(CO)NC(=O)[C@H](Cc2c[nH]c3c(C#N)cccc23)NC(=O)[C@H](Cc2ccc(C(=O)O)cc2)NC(=O)[C@H](CC(N)=O)NC(=O)[C@H]2C[C@H](OC)CN2C(=O)[C@H](Cc2c[nH]c3ccccc23)NC(=O)[C@@H]2CC[C@@H](O)CN2C(=O)[C@H](Cc2ccncc2)NC1=O [SEQ ID NO. 14] (cyclo([4Pal][Pip(5R-OH)]W[dHyp](Me)N[Phe(4-COOH)][Trp(7-CN)][αMeS][Phe(4-CONH2)][Phe(4-CONH2)][Sar][Trp(βS-Me,7-OMe)][X1][Nle])) | 0.03 | > 1000
CCCCC[C@@H]1NC(=O)[C@@H]2CC[C@@H](C2)NC(=O)[C@H]([C@@H](C)c2c[nH]c3c(OC)cccc23)NC(=O)CN(C)C(=O)[C@H](Cc2ccc(C(N)=O)cc2)NC(=O)[C@H](Cc2ccc(C(N)=O)cc2)NC(=O)[C@](C)(CO)NC(=O)[C@H](Cc2c[nH]c3c(C#N)cccc23)NC(=O)[C@H](Cc2ccc(C(=O)O)cc2)NC(=O)[C@H](CC(N)=O)NC(=O)[C@H]2C[C@H](O)CN2C(=O)[C@H](Cc2c[nH]c3ccccc23)NC(=O)[C@H](CO)NC(=O)[C@H]([C@H](O)c2ccncc2)NC1=O [SEQ ID NO. 16] (cyclo([Ahp(2)][X30]SW[dHyp]N[Phe(4-COOH)][Trp(7-CN)][αMeS][Phe(4-CONH2)][Phe(4-CONH2)][Sar][Trp(βS-Me,7-OMe)][X1])) | 0.11 | > 1000
CCCC[C@@H]1NC(=O)[C@@H]2CC[C@@H](C2)NC(=O)[C@H]([C@@H](C)c2c[nH]c3c(OC)cccc23)NC(=O)CN(C)C(=O)[C@H](Cc2cccc(C(=O)O)c2)NC(=O)[C@H](Cc2ccc(C(N)=O)cc2)NC(=O)[C@](C)(CO)NC(=O)[C@H](Cc2c[nH]c3c(Cl)cccc23)NC(=O)[C@H](Cc2ccc(C(=O)O)cc2)NC(=O)[C@H](CC(N)=O)NC(=O)[C@H]2C[C@H](O)CN2C(=O)[C@H](Cc2c[nH]c3ccccc23)NC(=O)[C@@H]2CC[C@@H](O)CN2C(=O)[C@H](Cc2ccncc2)NC1=O [SEQ ID NO. 17] (cyclo([4Pal][Pip(5R-OH)]W[dHyp]N[Phe(4-COOH)][Trp(7-Cl)][αMeS][Phe(4-CONH2)][Phe(3-COOH)][Sar][Trp(βS-Me,7-OMe)][X1][Nle])) | 0.16 | > 1000
CCCC[C@@H]1NC(=O)[C@@H]2CC[C@@H](C2)NC(=O)[C@H]([C@@H](C)c2c[nH]c3c(OC)cccc23)NC(=O)CN(C)C(=O)[C@H](Cc2ccc(C(N)=O)cc2)NC(=O)[C@H](Cc2ccc(C(N)=O)cc2)NC(=O)[C@](C)(CO)NC(=O)[C@H](Cc2c[nH]c3c(C#N)cccc23)NC(=O)[C@H](Cc2ccc(C(=O)O)cc2)NC(=O)[C@H](CC(N)=O)NC(=O)[C@H](CCC(=O)O)N(C)C(=O)[C@H](Cc2c[nH]c3ccccc23)NC(=O)[C@@H]2CC[C@@H](O)CN2C(=O)[C@H](Cc2ccncc2)NC1=O [SEQ ID NO. 19] (cyclo([4Pal][Pip(5R-OH)]W[NMeE]N[Phe(4-COOH)][Trp(7-CN)][αMeS][Phe(4-CONH2)][Phe(4-CONH2)][Sar][Trp(βS-Me,7-OMe)][X1][Nle])) | 0.08 | > 1000
CCCC[C@@H]1NC(=O)[C@@H]2CC[C@@H](C2)NC(=O)[C@H]([C@@H](C)c2c[nH]c3c(OC)cccc23)NC(=O)CN(C)C(=O)[C@H](Cc2ccc(C(=O)O)cc2)NC(=O)[C@H](Cc2ccc(C(N)=O)cc2)NC(=O)[C@](C)(CO)NC(=O)[C@H](Cc2c[nH]c3c(Cl)cccc23)NC(=O)[C@H](Cc2ccncc2)NC(=O)[C@H](CC(N)=O)NC(=O)[C@H]2C[C@H](F)CN2C(=O)[C@H](Cc2c[nH]c3ccccc23)NC(=O)[C@@H]2CC[C@@H](O)CN2C(=O)[C@H](Cc2ccncc2)NC1=O [SEQ ID NO. 101] (cyclo([4Pal][Trp(7-Cl)][αMeS][Phe(4-CONH2)][Phe(4-COOH)][Sar][Trp(βS-Me,7-OMe)][X1][Nle][4Pal][Pip(5R-OH)]W[dPro(trans-4-F)]N)) | 0.05 | > 1000
CCCCC[C@@H]1NC(=O)[C@@H]2CC[C@@H](C2)NC(=O)[C@H]([C@@H](C)c2c[nH]c3c(OC)cccc23)NC(=O)CN(C)C(=O)[C@H](Cc2ccc(C(N)=O)cc2)NC(=O)[C@H](Cc2ccc(C(N)=O)cc2)NC(=O)[C@](C)(CO)NC(=O)[C@H](Cc2c[nH]c3c(C#N)cccc23)NC(=O)[C@H](Cc2ccc(C(=O)O)cc2)NC(=O)[C@H](CC(N)=O)NC(=O)[C@H]2C[C@H](O)CN2C(=O)[C@H](Cc2c[nH]c3ccccc23)NC(=O)[C@H](CCCNC(N)=O)NC(=O)[C@H]([C@@H](C)c2ccncc2)NC1=O [SEQ ID NO. 110] (cyclo([Ahp(2)][4Pal(3S-Me)][Cit]W[dHyp]N[Phe(4-COOH)][Trp(7-CN)][αMeS][Phe(4-CONH2)][Phe(4-CONH2)][Sar][Trp(βS-Me,7-OMe)][X1])) | 0.14 | –
